The results in this text go back to patent publication US7495104B2, “Quinoline or quinazoline derivatives inhibiting auto-phosphorylation of fibroblast growth factor receptors” (Kirin Beer Kabushiki Kaisha, priority 2001, dated 2009).

Some results are limits rather than exact numbers.

Bek, sequence (P21802 431-767 limits assumed): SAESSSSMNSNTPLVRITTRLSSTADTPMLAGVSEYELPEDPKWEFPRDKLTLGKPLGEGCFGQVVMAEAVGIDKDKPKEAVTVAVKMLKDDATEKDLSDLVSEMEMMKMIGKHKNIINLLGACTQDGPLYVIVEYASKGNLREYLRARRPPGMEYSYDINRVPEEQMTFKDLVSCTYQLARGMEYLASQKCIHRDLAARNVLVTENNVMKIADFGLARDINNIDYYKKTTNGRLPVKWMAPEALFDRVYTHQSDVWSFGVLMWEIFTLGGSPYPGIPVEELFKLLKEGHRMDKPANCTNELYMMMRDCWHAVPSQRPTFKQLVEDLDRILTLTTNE

The target in this assay is Bek (Homo sapiens, UniProt P21802). Nature of the assay: Inhibitory activity against Bek-autophosphorylation using ELISA method in OCUM-2MD3 cells. The note with it: 1 hr with compound, read-out: IC50 (concentration necessary for inhibiting 50% of Bek-phosphorylation). Type of assay: cell-based. As for the experimental part:
Human scirrhus stomach cancer cells OCUM-2MD3 (kindly provided by Dr. Kosei Hirakawa, Osaka City University) were cultured in an RPMI medium containing 10% fetal calf serum (purchased from ICN) within a 5% carbon dioxide incubator until 50 to 90% confluent. The harvested cells were seeded onto 96-well flat-bottom plate in RPMI containing 0.1% fetal calf serum at 3.5×10^4 cells per well, followed by cultivation at 37° C. overnight. A solution of the test compound in dimethyl sulfoxide was added to each well, and the cultivation was continued at 37° C. for additional one hr. The medium was removed, and 50 μl of lysis buffer (20 mM HEPES (pH 7.4), 150 mM NaCl, 0.2% Triton X-100, 10% glycerol, 5 mM sodium orthovanadylate, 5 mM disodium ethylenediaminetetraacetate, and 2 mM Na4P2O7) was then added thereto. The mixture was shaken at 4° C. for 2 hr to prepare cell extracts.
Separately, phosphate buffered saline (50 μl, pH 7.4) containing 5 μg/ml of anti-phospho-tyrosine antibody (PY20; purchased from Transduction Laboratories) was added to a microplate for ELISA (Maxisorp; purchased from NUNC), followed by standing at 4° C. overnight to form a solid phase on the wells. After washing of the plate, 300 μl of a blocking solution was added, followed by standing at room temperature for 2 hr to perform blocking. After washing, the whole quantity of the cell extracts was transferred to the wells, and the plate was then allowed to stand at 4° C. overnight. After washing, an anti-Bek antibody (Bek (C-17), purchased from Santa Cruz Biotechnology) or Anti-Human K-sam Rabbit IgG Affinity Purity (purchased from IBL Co., Ltd.) was allowed to react at room temperature for one hr, and, after washing, a peroxidase-labeled anti-rabbit Ig antibody (purchased from Amersham) was allowed to react at room temperature for one hr. After washing, a chromophoric substrate for peroxidase (purchased from Sumitomo Bakelite Co., Ltd.) was added thereto to initiate a reaction. After a suitable level of color development, a reaction termination solution was added to stop the reaction, and the absorbance at 450 nm was measured with a microplate reader. The Bek-phosphorylation activity for each well was determined by presuming the absorbance without the addition of the medicament to be 100% Bek-phosphorylation activity and the absorbance with the addition of a large excess of a positive control (N-{4-[(6,7-dimethoxy-4-quinolyl)oxy]phenyl}-N′-(3,3-dimethylbutyl)urea, 1000 nM) to be 0% Bek-phosphorylation activity. The concentration of the test compound was varied on several levels, the Bek-phosphorylation inhibitory activity was determined for each case, and the concentration of the test compound necessary for inhibiting 50% of Bek-phosphorylation (IC50) was calculated.
A general note: In an ELISA, binding on a coated surface is turned into a signal by an enzyme label.
With `COc1cc2c(Oc3ccc(NC(=O)NCCC(C)(C)C)c(F)c3)ccnc2cc1OCCCN(C)CCO` [Compound 333, 1-(3,3-Dimethyl-butyl)-3-[2-fluoro-4-(7-{3-[(2-hydroxy-ethyl)-methyl-amino]-propoxy}-6-methoxy-quinolin-4-yloxy)-phenyl]-urea], the IC50 was 9.4 nM. In the case of `COc1cc2nccc(Oc3ccc(NC(=O)NCCC(C)(C)C)cc3)c2cc1OCCCN1CCC(CCO)CC1` [Compound 324, 1-(3,3-Dimethyl-butyl)-3-[4-(6-{3-[4-(2-hydroxy-ethyl)-piperidin-1-yl]-propoxy}-7-methoxy-quinolin-4-yloxy)-phenyl]-urea], the IC50 is 287 nM.

As to `COc1cc2c(Oc3ccc(NC(=O)NCCC(C)(C)C)cc3)ccnc2cc1OCCN(CC(C)O)CC(C)O` (centres unmarked) [Compound 360, 1-[4-(7-{2-[Bis-(2-hydroxy-propyl)-amino]-ethoxy}-6-methoxy-quinolin-4-yloxy)-phenyl]-3-(3,3-dimethyl-butyl)-urea], the IC50 was 19.5 nM. The value for `CCN(CCO)CCCOc1cc2nccc(Oc3ccc(NC(=O)NCCC(C)(C)C)c(Cl)c3)c2cc1OC` [Compound 345, 1-[2-Chloro-4-(7-{3-[ethyl-(2-hydroxy-ethyl)-amino]-propoxy}-6-methoxy-quinolin-4-yloxy)-phenyl]-3-(3,3-dimethyl-butyl)-urea] was 9.8 nM; that for `COc1cc2c(Oc3ccc(NC(=O)NCCC(C)(C)C)cc3)ccnc2cc1OCCN1CCC(N2CCCCC2)CC1` [Compound 123, 1-{4-[7-(2-[1,4′]bipiperidineyl-1′-yl-ethoxy)-6-methoxy-quinolin-4-yloxy]-phenyl}-3-(3,3-dimethyl-butyl)-urea] was less than 10 nM. For `COc1cc2c(Oc3ccc(Nc4ccc(C(C)(C)C)cc4)cc3)ccnc2cc1OCC(O)CN1CCC(N2CCCC2)CC1` (centres unmarked) [Compound 259, 1-{4-[4-(4-Tert-butyl-phenylamino)-phenoxy]-6-methoxy-quinolin-7-yloxy}-3-(4-pyrrolidin-1-yl-piperidin-1-yl)-propan-2-ol] the value was 46.6 nM; for `COc1cc2c(Oc3ccc(NC(=O)NCCC(C)(C)C)c(Cl)c3)ccnc2cc1OCCN(C)CCO` [Compound 177, 1-[2-Chloro-4-(7-{2-[(2-hydroxy-ethyl)-methyl-amino]-ethoxy}-6-methoxy-quinolin-4-yloxy)-phenyl]-3-(3,3-dimethyl-butyl)-urea], 10.6 nM; for `COc1cc2nccc(Oc3ccc(NC(=O)NC(C)(C)CC(C)(C)C)c(Cl)c3)c2cc1OC` [Compound 144, 1-[2-Chloro-4-(6,7-dimethoxy-quinolin-4-yloxy)-phenyl]-3-(1,1,3,3-tetramethyl-butyl)-urea], 202 nM. For `COc1cc2c(Oc3ccc(Nc4ccc(C(C)(C)C)cc4)cc3)ccnc2cc1OCCN1CCC(OC)CC1` [Compound 280, (4-Tert-butyl-phenyl)-(4-{6-methoxy-7-[2-(4-methoxy-piperidin-1-yl)-ethoxy]-quinolin-4-yloxy}-phenyl)-amine] the value was 278 nM. Consider `COc1cc2c(Oc3ccc(Nc4ccc(C(C)(C)C)cc4)cc3)ccnc2cc1OC[C@H](O)CN1CCOCC1` [Compound 70, (R)-1-{4-[4-(4-Tert-butylphenylamino)phenoxy]-6-methoxyquinolin-7-yloxy}-3-morpholin-4-ylpropan-2-ol], for which the IC50 worked out at 68.5 nM.

Regarding `COc1ccc(Nc2ccc(Oc3ccnc4cc(OC)c(OC)cc34)cc2)cc1` [Compound 1, [4-(6,7-Dimethoxyquinolin-4-yloxy)phenyl]-(4-methoxyphenyl)-amine], the IC50 was 3930 nM. As to `COc1cc2c(Oc3ccc(Nc4ccc(C(C)(C)C)cc4)cc3)ccnc2cc1OCCNC1(CO)CCCC1` [Compound 350, [1-(2-{4-[4-(4-Tert-butyl-phenylamino)-phenoxy]-6-methoxy-quinolin-7-yloxy}-ethylamino)-cyclopenthyl]-methanol], the IC50 came to 334 nM. The value for `COc1cc2c(Oc3ccc(Nc4ccc(C(C)(C)C)cc4)cc3)ccnc2cc1OCCN1CCN(C)CC1` [Compound 33, (4-Tert-butylphenyl)-(4-{6-methoxy-7-[2-(4-methylpiperazin-1-yl)ethoxy]quinolin-4-yloxy}phenyl)amine] was 155 nM; that for `COc1cc2c(Oc3ccc(NC(=O)NCCC(C)(C)C)cc3)ccnc2cc1OCCN1CCC(N2CCCC2)CC1` [Compound 124, 1-(3,3-Dimethyl-butyl)-3-(4-{6-methoxy-7-[2-(4-pyrrolidin-1-yl-piperidin-1-yl)-ethoxy]-quinolin-4-yloxy}-phenyl)-urea] was less than 10 nM; that for `CCC(CO)(CO)NCCOc1cc2nccc(Oc3ccc(NC(=O)NCCC(C)(C)C)cc3)c2cc1OC` [Compound 354, 1-(4-{7-[2-(1,1-Bis-hydroxymethyl-propylamino)-ethoxy]-6-methoxy-quinolin-4-yloxy}-phenyl)-3-(3,3-dimethyl-butyl)-urea] was 38.4 nM. The value for `COc1cc2c(Oc3ccc(NC(=O)NCCC(C)(C)C)c(F)c3)ccnc2cc1OCCN1C(C)CCCC1C` (centres unmarked) [Compound 130, 1-(3,3-Dimethyl-butyl)-3-(4-{7-[2-(2,6-dimethyl-piperidin-1-yl)-ethoxy]-6-methoxy-quinolin-4-yloxy}-2-fluoro-phenyl)-urea] was 162 nM.

For the compound `COc1cc2c(Oc3ccc(NC(=O)NCCC(C)(C)C)c(F)c3)ccnc2cc1OC(=O)N1CCC(N2CCCCC2)CC1` [Compound 230, 4-{4-[3-(3,3-Dimethyl-butyl)-ureido]-3-fluoro-phenoxy}-6-methoxy-quinolin-7-yl [1,4′]bipiperidineyl-1′-carboxylate], the IC50 came to 32.1 nM.

Regarding `COc1cc2c(Oc3ccc(NC(=O)NCCC(C)(C)C)cc3F)ccnc2cc1OCCCN1CC(C)OC(C)C1` (centres unmarked) [Compound 327, 1-(3,3-Dimethyl-butyl)-3-(4-{7-[3-(2,6-dimethyl-morpholin-4-yl)-propoxy]-6-methoxy-quinolin-4-yloxy}-3-fluoro-phenyl)-urea], the IC50 worked out at 20.6 nM. For `COc1cc2c(Oc3ccc(Nc4ccc(C(C)(C)C)cc4)cc3)ccnc2cc1OCCNCC1CCCO1` (centres unmarked) [Compound 347, N1-[4-(Tert-butyl)phenyl]-4-[(6-methoxy-7-{2-[(tetrahydro-2-furanylmethyl)amino]ethoxy}-4-quinolyl)oxy]aniline] the value was 354 nM; for `COc1cc2c(Oc3ccc(Nc4ccc(C(C)(C)C)cc4)cc3)ccnc2cc1OCCN(CCO)C1CCCCC1` [Compound 364, 2-[(2-{4-[4-(4-Tert-butyl-phenylamino)-phenoxy]-6-methoxy-quinolin-7-yloxy}-ethyl)-cyclohexyl-amino]-ethanol], 230 nM.

Regarding `COc1cc2c(Oc3ccc(NC(=O)NCCC(C)(C)C)cc3)ccnc2cc1OCCN1CCC(CCO)CC1` [Compound 219, 1-(3,3-Dimethyl-butyl)-3-[4-(7-{2-[4-(2-hydroxy-ethyl)-piperidin-1-yl]-ethoxy}-6-methoxy-quinolin-4-yloxy)-phenyl]-urea], the IC50 is less than 10 nM.

For `COc1cc2c(Oc3ccc(NC(=O)NCCC(C)(C)C)cc3)ccnc2cc1OCCN1CCC(Cc2ccccc2)CC1` [Compound 122, 1-(4-{7-[2-(4-Benzyl-piperidin-1-yl)-ethoxy]-6-methoxy-quinolin-4-yloxy}-phenyl)-3-(3,3-dimethyl-butyl)-urea], the IC50 came out at 151 nM. As to `COc1cc2c(Oc3ccc(NC(=O)NCCC(C)(C)C)cc3)ccnc2cc1OCC(O)CN1CC(C)OC(C)C1` (centres unmarked) [Compound 250, 1-(3,3-Dimethyl-butyl)-3-(4-{7-[3-(2,6-dimethyl-morpholin-4-yl)-2-hydroxy-propoxy]-6-methoxy-quinolin-4-yloxy}-phenyl)-urea], the IC50 was less than 10 nM.

On to `COc1cc2nccc(Oc3ccc(Nc4nn(-c5ccccc5)c(=O)o4)cc3)c2cc1OC` [Compound 76, 5-[4-(6,7-Dimethoxyquinolin-4-yloxy)phenylamino]-3-phenyl-3H-[1,3,4]oxazol-2-one], for which the IC50 worked out at 7560 nM. The value for `COc1cc2c(Oc3ccc(NC(=O)NCCC(C)(C)C)c(Cl)c3)ccnc2cc1OCC1CCCNC1` (centres unmarked) [Compound 190, 1-{2-Chloro-4-[6-methoxy-7-(piperidin-3-ylmethoxy)-quinolin-4-yloxy]-phenyl}-3-(3,3-dimethyl-butyl)-urea] was 33.5 nM. The value for `COc1cc2c(Oc3ccc(NC(=O)NC4CCCC(C)(C)C4)c(F)c3)ccnc2cc1OCCN1CCOCC1` (centres unmarked) [Compound 133, 1-(3,3-Dimethyl-cyclohexyl)-3-{2-fluoro-4-[6-methoxy-7-(2-morpholin-4-yl-ethoxy)-quinolin-4-yloxy]-phenyl}-urea] was 9.2 nM.
